Measurements: ChEMBL document CHEMBL1201862, “PubChem BioAssay data set” (2004)
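Tested at 5 concentrations; 48 h exposure; 96-well plates; endpoints linearly interpolated, else capped at highest concentration. GI50 is the concentration that inhibits growth by half.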 Active and inactive are the calls of the source. No stated cut-off is given here; in the data, active = GI50 up to about 1.1 µM and inactive = higher.

Columns and labels:
Assay in all cases: NCI tumour cell line growth inhibition, 48 h
786-0 = system: 786-0
A498 = system: A498
A549 = system: A549
ACHN = system: ACHN
BT-549 = system: BT-549
CAKI-1 = system: CAKI-1
COLO 205 = system: COLO 205
DU-145 = system: DU-145
EKVX = system: EKVX
HCC 2998 = system: HCC 2998
HCT-116 = system: HCT-116
HCT-15 = system: HCT-15
HL-60 = system: HL-60
HOP-62 = system: HOP-62
HOP-92 = system: HOP-92
HT-29 = system: HT-29
Hs-578T = system: Hs-578T
IGROV-1 = system: IGROV-1
K562 = system: K562
KM12 = system: KM12
LOX IMVI = system: LOX IMVI
M14 = system: M14
MCF7 = system: MCF7
MDA-MB-435 = system: MDA-MB-435
MDA-N = system: MDA-N
MOLT-4 = system: MOLT-4
Malme-3M = system: Malme-3M
NCI-H226 = system: NCI-H226
NCI-H23 = system: NCI-H23
NCI-H460 = system: NCI-H460
NCI-H522 = system: NCI-H522
NCI/ADR-RES = system: NCI/ADR-RES
OVCAR-3 = system: OVCAR-3
OVCAR-4 = system: OVCAR-4
OVCAR-5 = system: OVCAR-5
OVCAR-8 = system: OVCAR-8
PC-3 = system: PC-3
RPMI-8226 = system: RPMI-8226
RXF 393 = system: RXF 393
SF-268 = system: SF-268
SF-295 = system: SF-295
SF-539 = system: SF-539
SK-MEL-28 = system: SK-MEL-28
SK-MEL-2 = system: SK-MEL-2
SK-MEL-5 = system: SK-MEL-5
SK-OV-3 = system: SK-OV-3
SN12C = system: SN12C
SNB-19 = system: SNB-19
SR = system: SR
SW-620 = system: SW-620
T47D = system: T47D
TK-10 = system: TK-10
U-251 = system: U-251
UACC-257 = system: UACC-257
UACC-62 = system: UACC-62
UO-31 = system: UO-31
CCRF-CEM = system: CCRF-CEM
MDA-MB-231 = system: MDA-MB-231
SNB-75 = system: SNB-75

## Nc1nc(=O)[nH]cc1F [FLUCYTOSINE]
786-0
  GI50: > 100 µM (inactive)
A498
  GI50: > 100 µM (inactive)
A549
  GI50: > 100 µM (inactive)
ACHN
  GI50: > 100 µM (inactive)
BT-549
  GI50: > 100 µM (inactive)
CAKI-1
  GI50: > 100 µM (inactive)
COLO 205
  GI50: > 100 µM (inactive)
DU-145
  GI50: > 100 µM (inactive)
EKVX
  GI50: > 100 µM (inactive)
HCC 2998
  GI50: > 100 µM (inactive)
HCT-116
  GI50: > 100 µM (inactive)
HCT-15
  GI50: > 100 µM
HL-60
  GI50: > 100 µM (inactive)
HOP-62
  GI50: > 100 µM (inactive)
HOP-92
  GI50: > 100 µM (inactive)
HT-29
  GI50: > 100 µM (inactive)
Hs-578T
  GI50: > 100 µM (inactive)
IGROV-1
  GI50: > 100 µM (inactive)
K562
  GI50: > 100 µM (inactive)
KM12
  GI50: > 100 µM (inactive)
LOX IMVI
  GI50: > 100 µM (inactive)
M14
  GI50: > 100 µM (inactive)
MCF7
  GI50: > 100 µM (inactive)
MDA-MB-435
  GI50: > 100 µM (inactive)
MDA-N
  GI50: > 100 µM (inactive)
MOLT-4
  GI50: > 100 µM (inactive)
Malme-3M
  GI50: > 100 µM (inactive)
NCI-H226
  GI50: > 100 µM (inactive)
NCI-H23
  GI50: > 100 µM (inactive)
NCI-H460
  GI50: > 100 µM (inactive)
NCI-H522
  GI50: > 100 µM (inactive)
NCI/ADR-RES
  GI50: > 100 µM (inactive)
OVCAR-3
  GI50: > 100 µM (inactive)
OVCAR-4
  GI50: > 100 µM (inactive)
OVCAR-5
  GI50: > 100 µM (inactive)
OVCAR-8
  GI50: > 100 µM (inactive)
PC-3
  GI50: > 100 µM (inactive)
RPMI-8226
  GI50: > 100 µM (inactive)
RXF 393
  GI50: > 100 µM (inactive)
SF-268
  GI50: > 100 µM (inactive)
SF-295
  GI50: > 100 µM (inactive)
SF-539
  GI50: > 100 µM (inactive)
SK-MEL-28
  GI50: > 100 µM (inactive)
SK-MEL-2
  GI50: > 100 µM (inactive)
SK-MEL-5
  GI50: > 100 µM (inactive)
SK-OV-3
  GI50: > 100 µM (inactive)
SN12C
  GI50: > 100 µM (inactive)
SNB-19
  GI50: > 100 µM (inactive)
SR
  GI50: > 100 µM (inactive)
SW-620
  GI50: > 100 µM (inactive)
T47D
  GI50: > 100 µM (inactive)
TK-10
  GI50: > 100 µM (inactive)
U-251
  GI50: 32.7 µM (inactive)
UACC-257
  GI50: 24 µM (inactive)
UACC-62
  GI50: > 100 µM (inactive)
UO-31
  GI50: > 100 µM (inactive)

## CSc1nc(SC)c2ncn(C3CC(Oc4ccc(C)cc4)C(COc4ccc(C)cc4)O3)c2n1 (stereo unspecified)
786-0
  GI50: > 100 µM (inactive)
A498
  GI50: > 100 µM (inactive)
A549
  GI50: > 100 µM (inactive)
ACHN
  GI50: > 100 µM (inactive)
BT-549
  GI50: > 100 µM (inactive)
CAKI-1
  GI50: > 100 µM (inactive)
CCRF-CEM
  GI50: > 100 µM (inactive)
COLO 205
  GI50: > 100 µM (inactive)
DU-145
  GI50: > 100 µM (inactive)
EKVX
  GI50: > 100 µM (inactive)
HCC 2998
  GI50: > 100 µM (inactive)
HCT-116
  GI50: > 100 µM (inactive)
HCT-15
  GI50: > 100 µM
HL-60
  GI50: > 100 µM (inactive)
HOP-62
  GI50: > 100 µM (inactive)
HOP-92
  GI50: > 100 µM (inactive)
HT-29
  GI50: > 100 µM (inactive)
Hs-578T
  GI50: > 100 µM (inactive)
IGROV-1
  GI50: > 100 µM (inactive)
KM12
  GI50: > 100 µM (inactive)
LOX IMVI
  GI50: > 100 µM (inactive)
M14
  GI50: > 100 µM (inactive)
MCF7
  GI50: > 100 µM (inactive)
MDA-MB-231
  GI50: > 100 µM (inactive)
MDA-MB-435
  GI50: > 100 µM (inactive)
MDA-N
  GI50: > 100 µM (inactive)
Malme-3M
  GI50: > 100 µM (inactive)
NCI-H226
  GI50: > 100 µM (inactive)
NCI-H23
  GI50: > 100 µM (inactive)
NCI-H460
  GI50: > 100 µM (inactive)
NCI-H522
  GI50: > 100 µM (inactive)
NCI/ADR-RES
  GI50: > 100 µM (inactive)
OVCAR-3
  GI50: > 100 µM (inactive)
OVCAR-4
  GI50: > 100 µM (inactive)
OVCAR-5
  GI50: > 100 µM (inactive)
OVCAR-8
  GI50: > 100 µM (inactive)
PC-3
  GI50: > 100 µM (inactive)
RPMI-8226
  GI50: 8.71 µM (inactive)
SF-268
  GI50: > 100 µM (inactive)
SF-295
  GI50: > 100 µM (inactive)
SF-539
  GI50: > 100 µM (inactive)
SK-MEL-28
  GI50: > 100 µM (inactive)
SK-MEL-2
  GI50: > 100 µM (inactive)
SK-MEL-5
  GI50: > 100 µM (inactive)
SK-OV-3
  GI50: > 100 µM (inactive)
SN12C
  GI50: > 100 µM (inactive)
SNB-19
  GI50: > 100 µM (inactive)
SNB-75
  GI50: 26.5 µM (inactive)
SW-620
  GI50: > 100 µM (inactive)
T47D
  GI50: 63.1 µM (inactive)
TK-10
  GI50: > 100 µM (inactive)
U-251
  GI50: > 100 µM (inactive)
UACC-257
  GI50: > 100 µM (inactive)
UACC-62
  GI50: > 100 µM (inactive)
UO-31
  GI50: 0.984 µM (active)
